Measured values as given in patent US20220233708A1, “ANTIBODY-DRUG CONJUGATE, INTERMEDIATE THEREOF, PREPARATION METHOD THEREFOR AND APPLICATION THEREOF” (priority 2019, published 2022).
Starred links: 1 amine or outer side, 2 acyl side, 3 side chain; linkers in the order of their positions; H or OH if unused. Non-standard residues stand in square brackets, D forms with d. Residues, ends and D or L forms follow the SMILES beside them. *: point of attachment. Exatecan = CC[C@@]1(O)C(=O)OCc2c1cc1n(c2=O)Cc2c-1nc1cc(F)c(C)c3c1c2[C@@H](N*)CC3; X2 = CC[C@@]1(O)C(=O)OC(=O)C2=C1C=C1c3nc4cc(F)c(C)c5c4c(c3CN1C2)[C@@H](N*)CC5; Hexanoyl(6-maleimido) = O=C1C=CC(=O)N1CCCCCC(=O)*; X3 = O=C1C=CC(=O)N1CC1CCC(C(=O)*)CC1; X1 = O=C1C=C(Br)C(=O)N1CCCCCC(=O)*; NHCH2OCH2CO = O=C(COCN[*:1])[*:2]

Assays:
[1] = test system: anti-B7-H3 antibody P2E5; assay: Coupling of linker-drug conjugates with P2E5; assay type: physicochemical; details: coupling with P2E5, highest DAR (excessive coupling)
Description: (§1) The anti-B7-H3 antibody P2E5, anti-Claudin18.2 antibody IMAB362, and anti-HER2 antibody Trastuzumab (concentration was 15 mg/mL) were replaced into 50 mM PB/1.0 mM EDTA buffer (pH 7.0) by a G25 desalting column, respectively. 12 equivalents of TECP was added and the mixture was stirred at 37° C. for 2 hours to fully open the disulfide bonds between the antibody chains. Then phosphoric acid was used to adjust the pH of the reduced antibody solution to 6.0, and the temperature of the water bath was lowered to 25° C. for coupling reaction. […] After the reaction was completed, the sample was filtered with a 0.22 μm membrane. Uncoupled small molecules were purified and removed by a tangential flow ultrafiltration system. The buffer was 50 mM PB/1.0 mM EDTA solution (pH 6.0). After purification, sucrose (final concentration was 6%) was added, and the mixture was stored in a refrigerator at −20° C. The UV method was used to measure the absorbance values at 280 nm and 370 nm respectively, and the DAR value was calculated.

[2] = test system: anti-Claudin18.2 antibody IMAB362; assay: Coupling of linker-drug conjugates with IMAB362; assay type: physicochemical; details: coupling with IMAB362, highest DAR (excessive coupling)
Description: as §1

[3] = test system: anti-HER2 antibody Trastuzumab; assay: Coupling of linker-drug conjugates with Trastuzumab; assay type: physicochemical; details: highest DAR (excessive coupling)
Description: as §1

[4] = biological target: cathepsin B (Homo sapiens, UniProt P07858); assay: In vitro enzyme cleavage experiment of linker-drug conjugates; assay type: in vitro ADME; details: pH 5.0 to pH 7.0
Description: Linker-drug conjugates (LE14 and GGFG-Dxd) and cathepsin B were incubated in three different pH (5.0, 6.0, 7.0) buffers, and samples were taken at different time points into the high performance liquid chromatography-mass spectrometer. The release percentage of the drug was determined by external standard method (with Dxd as the external standard).

| Structure (SMILES) | Ratio of aggregates [1] [%] | Whether precipitation [1] | Ratio of aggregates [2] [%] | Whether precipitation [2] | Ratio of aggregates [3] [%] | Whether precipitation [3] | Enzyme cleavage speed (in words) [4] |
| --- | --- | --- | --- | --- | --- | --- | --- |
| CC[C@@]1(O)C(=O)OCc2c1cc1n(c2=O)Cc2c-1nc1cc(F)c(C)c3c1c2[C@@H](NC(=O)COCNC(=O)CNC(=O)[C@H](Cc1ccccc1)NC(=O)CNC(=O)CNC(=O)C1CCC(CN2C(=O)C=CC2=O)CC1)CC3 (stereo partly shown) [LE01] (X3-GGFG[NHCH2OCH2CO]-Exatecan) | 2.1 | No | 2.0 | No | 0.2 | No |  |
| CCC1(O)C(=O)OC(=O)C2=C1C=C1c3nc4cc(F)c(C)c5c4c(c3CN1C2)C(NC(=O)COCNC(=O)CNC(=O)C(Cc1ccccc1)NC(=O)CNC(=O)CNC(=O)C(CCCCN1C(=O)C=CC1=O)S(=O)(=O)O)CC5 (stereo not shown) [LE02] | 1.3 | No | 1.8 | No | 0.2 | No |  |
| CCC1(O)C(=O)OC(=O)C2=C1C=C1c3nc4cc(F)c(C)c5c4c(c3CN1C2)C(NC(=O)COCNC(=O)CNC(=O)C(Cc1ccccc1)NC(=O)CNC(=O)CNC(=O)C(CN)N1C(=O)C=CC1=O)CC5 (stereo not shown) [LE03] | 1.1 | No | 1.5 | No | 0.2 | No |  |
| CCC1(O)C(=O)OC(=O)C2=C1C=C1c3nc4cc(F)c(C)c5c4c(c3CN1C2)C(NC(=O)COCNC(=O)CNC(=O)C(Cc1ccccc1)NC(=O)CNC(=O)CNC(=O)CCOCCOCCOCCOCCOCCOCCOCCOCCN1C(=O)C=CC1=O)CC5 (stereo not shown) [LE04] | 2.5 | No | 2.1 | No | 0.1 | No |  |
| CC[C@@]1(O)C(=O)OCc2c1cc1n(c2=O)Cc2c-1nc1cc(F)c(C)c3c1c2[C@@H](NC(=O)COCNC(=O)CNC(=O)[C@H](Cc1ccccc1)NC(=O)CNC(=O)CNC(=O)CCCCCN1C(=O)C=C(Br)C1=O)CC3 [LE05] (X1-GGFG[NHCH2OCH2CO]-Exatecan) | 1.6 | No | 2.3 | No | 0.1 | No |  |
| CC[C@@]1(O)C(=O)OC(=O)C2=C1C=C1c3nc4cc(F)c(C)c5c4c(c3CN1C2)[C@@H](NC(=O)COCNC(=O)CNC(=O)[C@H](Cc1ccccc1)NC(=O)CNC(=O)CNC(=O)[C@H](CCCCN)NC(=O)CCCCCN1C(=O)C=CC1=O)CC5 [LE06] ({Hexanoyl(6-maleimido)}-KGGFG[NHCH2OCH2CO]-X2) | 1.2 | No | 1.7 | No | 0.5 | No |  |
| CC[C@@]1(O)C(=O)OCc2c1cc1n(c2=O)Cc2c-1nc1cc(F)c(C)c3c1c2[C@@H](NC(=O)COCNC(=O)CNC(=O)[C@H](Cc1ccccc1)NC(=O)CNC(=O)[C@H](CCCCN)NC(=O)CCCCCN1C(=O)C=CC1=O)CC3.O=C(O)C(F)(F)F [LE07] ({Hexanoyl(6-maleimido)}-KGFG[NHCH2OCH2CO]-Exatecan) | 1.3 | No | 1.6 | No | 0.5 | No |  |
| CC[C@@]1(O)C(=O)OC(=O)C2=C1C=C1c3nc4cc(F)c(C)c5c4c(c3CN1C2)[C@@H](NC(=O)COCN(CCN(C)C)C(=O)OCc1ccc(NC(=O)[C@H](C)NC(=O)[C@@H](NC(=O)CCCCCN2C(=O)C=CC2=O)C(C)C)cc1)CC5 [LE13] | 1.5 | No | 2.3 | No | 0.1 | No |  |
| CC[C@@]1(O)C(=O)OC(=O)C2=C1C=C1c3nc4cc(F)c(C)c5c4c(c3CN1C2)[C@@H](NC(=O)COCN(CCS(C)(=O)=O)C(=O)OCc1ccc(NC(=O)[C@H](C)NC(=O)[C@@H](NC(=O)CCCCCN2C(=O)C=CC2=O)C(C)C)cc1)CC5 [LE14] | 1.3 | No | 2.5 | No | 0.3 | No | could quickly cleave |
| CC[C@@]1(O)C(=O)OC(=O)C2=C1C=C1c3nc4cc(F)c(C)c5c4c(c3CN1C2)[C@@H](NC(=O)COCN(CCS(C)(=O)=O)C(=O)OCc1ccc(NC(=O)[C@H](C)NC(=O)[C@@H](NC(=O)C(CCCCN2C(=O)C=CC2=O)S(=O)(=O)O)C(C)C)cc1)CC5 (stereo partly shown) [LE15] | 2.1 | No | 1.6 | No | 0.2 | No |  |
| CC[C@@]1(O)C(=O)OC(=O)C2=C1C=C1c3nc4cc(F)c(C)c5c4c(c3CN1C2)[C@@H](NC(=O)COCN(CCS(C)(=O)=O)C(=O)OCc1ccc(NC(=O)[C@H](C)NC(=O)[C@@H](NC(=O)C2CCC(CN3C(=O)C=CC3=O)CC2)C(C)C)cc1)CC5 (stereo partly shown) [LE16] | 2.0 | No | 1.5 | No | 0.5 | No |  |
| CC[C@@]1(O)C(=O)OC(=O)C2=C1C=C1c3nc4cc(F)c(C)c5c4c(c3CN1C2)[C@@H](NC(=O)COCN(CCN(C)C)C(=O)OCc1ccc(NC(=O)[C@H](C)NC(=O)[C@@H](NC(=O)C2CCC(CN3C(=O)C=CC3=O)CC2)C(C)C)cc1)CC5 (stereo partly shown) [LE17] | 1.5 | No | 1.6 | No | 0.1 | No |  |
| CC[C@@]1(O)C(=O)OC(=O)C2=C1C=C1c3nc4cc(F)c(C)c5c4c(c3CN1C2)[C@@H](NC(=O)COCN(CCS(C)(=O)=O)C(=O)OCc1ccc(NC(=O)[C@H](C)NC(=O)[C@@H](NC(=O)CCCn2cc(CNC3CCC(CN4C(=O)C=CC4=O)CC3)nn2)C(C)C)cc1)CC5 (stereo partly shown) [LE18] | 1.6 | No | 2.1 | No | 0.1 | No |  |
| CC[C@@]1(O)C(=O)OC(=O)C2=C1C=C1c3nc4cc(F)c(C)c5c4c(c3CN1C2)[C@@H](NC(=O)COCN(CCS(C)(=O)=O)C(=O)OCc1ccc(NC(=O)[C@H](C)NC(=O)[C@@H](NC(=O)CCCn2cc(CNC(=O)CCCCCN3C(=O)C=CC3=O)nn2)C(C)C)cc1)CC5 [LE19] | 1.2 | No | 1.4 | No | 0.2 | No |  |
| CC[C@@]1(OCN(CCS(C)(=O)=O)C(=O)OCc2ccc(NC(=O)[C@H](C)NC(=O)[C@@H](NC(=O)CCCCCN3C(=O)C=CC3=O)C(C)C)cc2)C(=O)OCc2c1cc1n(c2=O)Cc2c-1nc1cc(F)c(C)c3c1c2[C@@H](NC(=O)CO)CC3 [LE21] | 2.2 | No | 2.3 | No | 0.2 | No |  |
| CC[C@@]1(OCN(CCN(C)C)C(=O)OCc2ccc(NC(=O)[C@H](C)NC(=O)[C@@H](NC(=O)CCCCCN3C(=O)C=CC3=O)C(C)C)cc2)C(=O)OCc2c1cc1n(c2=O)Cc2c-1nc1cc(F)c(C)c3c1c2[C@@H](NC(=O)CO)CC3 [LE22] | 2.1 | No | 1.5 | No | 0.5 | No |  |
| CC[C@@]1(O)C(=O)OCc2c1cc1n(c2=O)Cc2c-1nc1cc(F)c(C)c3c1c2[C@@H](NC(=O)COCNC(=O)CNC(=O)[C@H](Cc1ccccc1)NC(=O)[C@H](C)NC(=O)[C@@H](NC(=O)CCCCCN1C(=O)C=CC1=O)C(C)C)CC3 [LE23] ({Hexanoyl(6-maleimido)}-VAFG[NHCH2OCH2CO]-Exatecan) | 1.9 | No | 1.6 | No | 0.1 | No |  |
| CC[C@@]1(O)C(=O)OCc2c1cc1n(c2=O)Cc2c-1nc1cc(F)c(C)c3c1c2[C@@H](NC(=O)COCNC(=O)CNC(=O)[C@H](Cc1ccccc1)NC(=O)[C@H](CS)NC(=O)[C@@H](NC(=O)CCCCCN1C(=O)C=CC1=O)C(C)C)CC3 [LE24] ({Hexanoyl(6-maleimido)}-VCFG[NHCH2OCH2CO]-Exatecan) | 1.2 | No | 2.0 | No | 0.1 | No |  |
